*1 amine or outer side, *2 acyl side, *3 side chain or, on linkers, in order; H or OH if unused. Where a SMILES comes first, the peptide text is derived from it. Bridges are numbered along the chain shown (N, C = ends). Roman numbers before positions name the chains, in order. [ ]: non-standard residue; d: D form. Actinocin(1to9) = Cc1c2oc3c(C)ccc(C(=O)[*:2])c3nc-2c(C(=O)[*:1])c(N)c1=O; NMeV = CN[C@H](C(=O)O)C(C)C; Sar = CNCC(=O)O
Experiments:
NUGC [1] = assay: Cytotoxicity against human NUGC cells assessed as cell growth at 10 uM after 3 to 24 hrs by MTS assay; assay type: functional; conditions: read-out: Activity
NUGC [2] = assay: Cytotoxicity against human NUGC cells assessed as cell growth at 5 uM after 3 to 24 hrs by MTS assay; assay type: functional; conditions: read-out: Activity

## C=C(C)[C@@H]1CC[C@]2(C(=O)O)CC[C@]3(C(=O)O)[C@H](CC[C@@H]4[C@@]5(C)CCC(=O)C(C)(C)[C@@H]5[C@@H](O)C[C@]43C)[C@@H]12
NUGC [1]
  growth at 10 µM: > 50%

## C=C(C)[C@@H]1CC[C@]2(C(=O)O)CC[C@]3(C(=O)O)[C@H](CC[C@@H]4[C@@]5(C)CCC(=O)C(C)(C)[C@@H]5[C@H](O)C[C@]43C)[C@@H]12
NUGC [1]
  growth at 10 µM: 20%

## Cc1c2oc3c(C)ccc(C(=O)N[C@@H]4C(=O)N[C@H](C(C)C)C(=O)N5CCC[C@H]5C(=O)N(C)CC(=O)N(C)[C@@H](C(C)C)C(=O)O[C@@H]4C)c3nc-2c(C(=O)N[C@@H]2C(=O)N[C@H](C(C)C)C(=O)N3CCC[C@H]3C(=O)N(C)CC(=O)N(C)[C@@H](C(C)C)C(=O)O[C@@H]2C)c(N)c1=O [DACTINOMYCIN] (I: T[dV]P[Sar][NMeV] / II: T[dV]P[Sar][NMeV]; ester I:1-I:C, II:1-II:C; linker I:N-II:N via Actinocin(1to9))
NUGC [2]
  growth at 5 µM: 0%

## CC(C)=CC(=O)O[C@@H]1/C=C/[C@@](C)(C/C=C/C(C)(C)O)C/C=C(/CO)C(=O)/C=C/[C@@]1(C)O [VABSANOL A]
NUGC [1]
  growth at 10 µM: 15%

## C=C(C)C(O)CC[C@]1(C)/C=C/[C@@H](OC(=O)C=C(C)C)[C@](C)(O)/C=C/C(=O)/C(CO)=C\C1 (stereo not given in full) [VIBSANOL B]
NUGC [1]
  growth at 10 µM: > 50%

— ChEMBL document CHEMBL1150120, “New vibsane diterpenes and lupane triterpenes from Viburnum odoratissimum” (2002)
